The structures appear in SMILES notation.

The record followed here is patent US20100292222A1, “CHEMICAL COMPOUNDS 751” (ASTRAZENECA AB, priority 2009, published 2010).

In this test the target is T1, Androgen Receptor (AR) (Homo sapiens, UniProt P10275, T878A).
T1 construct: cell based immuno-fluorescence assay using the LNCaP prostate epithelial cell line; host or cells: LNCaP clone FGC prostate carcinoma cells
T1 sequence (P10275 1-920 T878A): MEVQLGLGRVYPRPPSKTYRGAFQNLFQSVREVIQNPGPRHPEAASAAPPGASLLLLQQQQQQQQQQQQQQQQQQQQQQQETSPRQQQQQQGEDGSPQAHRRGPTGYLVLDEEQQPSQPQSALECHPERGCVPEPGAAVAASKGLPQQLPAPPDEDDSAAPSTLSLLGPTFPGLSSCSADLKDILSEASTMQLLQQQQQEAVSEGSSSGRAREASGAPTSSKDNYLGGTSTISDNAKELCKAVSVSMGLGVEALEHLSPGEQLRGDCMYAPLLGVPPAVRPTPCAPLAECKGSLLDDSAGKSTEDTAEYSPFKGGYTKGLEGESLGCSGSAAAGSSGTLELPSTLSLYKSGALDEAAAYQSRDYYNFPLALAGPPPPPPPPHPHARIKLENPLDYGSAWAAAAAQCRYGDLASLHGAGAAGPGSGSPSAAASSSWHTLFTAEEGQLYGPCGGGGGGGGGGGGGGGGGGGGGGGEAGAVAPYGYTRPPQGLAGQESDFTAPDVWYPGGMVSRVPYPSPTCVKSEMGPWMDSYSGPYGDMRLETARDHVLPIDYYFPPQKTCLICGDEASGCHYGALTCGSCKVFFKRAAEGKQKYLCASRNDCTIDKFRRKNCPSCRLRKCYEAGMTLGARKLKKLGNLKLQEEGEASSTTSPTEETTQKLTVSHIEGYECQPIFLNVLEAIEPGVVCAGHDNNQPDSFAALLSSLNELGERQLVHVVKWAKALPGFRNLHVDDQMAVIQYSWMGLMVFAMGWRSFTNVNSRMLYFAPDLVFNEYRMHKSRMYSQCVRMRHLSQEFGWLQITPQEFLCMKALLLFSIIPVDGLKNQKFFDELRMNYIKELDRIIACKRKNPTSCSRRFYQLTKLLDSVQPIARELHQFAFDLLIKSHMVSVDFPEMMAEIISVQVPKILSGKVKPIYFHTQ
As to the kind of experiment: LNCaP Androgen Receptor Down-Regulation Cell Assay. The test is classed as cell-based. The following applies: LNCaP prostate carcinoma cell line; 20-22 hours incubation; immunofluorescence; 50% reduction of the AR signal. The procedure:
The ability of compounds to reduce Androgen Receptor (AR) numbers was assessed in a cell based immuno-fluorescence assay using the LNCaP prostate epithelial cell line.
This immunofluorescence end point assay measures the ability of a test compound to down-regulate and reduce measured levels of the AR in the LNCaP prostate carcinoma cell line (LNCaP clone FGC (CRL-1740) obtained from the American Type Culture Collection (ATCC)).
LNCaP cells were cultured in Growth Medium (phenol red free Roswell Park Memorial Institute (RPMI) 1640 (Invitrogen Code no. 11835-063) containing 2 mM L-Glutamine (Invitrogen Code no. 25030-024) and 1% (v/v) Penicillin/Streptomycin (10000 units/ml Penicillin and 10000 μg/ml of Streptomycin utilising penicillin G (sodium salt) and streptomycin sulphate: prepared in normal saline, Invitrogen Code no. 15140122) and 10% (v/v) foetal bovine serum (FBS)) in a 5% CO2 air incubator at 37° C. Cells for assay were harvested from T175 stock flasks by washing once in PBS (phosphate buffered saline, pH 7.4) (Invitrogen Code no. 14190-094) and harvested using 5 mls of 1× Trypsin/ethylaminediaminetetraacetic acid (EDTA) (10× Trypsin-EDTA, 5.0 g/L Trypsin, 2.0 g/L of EDTA•4Na and 8.5 g/L of NaCl, without Phenol Red, Invitrogen Code no. 15400-054) diluted in PBS solution. A 5 ml volume of Growth Medium was added to each flask (as above except that 5% (v/v) charcoal stripped FBS (HyClone Code no. SH30068.03) was included instead of 10% (v/v) FBS). Cells were syringed at least twice using a sterile 18G×1.5″ (1.2×40 mm) broad gauge needle and cell density was measured using a haemocytometer. Cells were further diluted in Growth Medium plus 5% (v/v) charcoal stripped FBS and seeded at a density of 6.5×10^3 cells per well (in 90 ul) into transparent, black, tissue culture treated 96 well plates (Packard, No. 6005182).
Test data reported herein was generated using two different compounds preparation and dosing methods. In method (1) a 10 mM compound stock solution in 100% (v/v) DMSO was serially diluted in 4-fold steps in 100% (v/v) DMSO using a Thermo Scientific Matrix SerialMate. The diluted compounds were then further diluted 1 in 30 in assay media using a Thermo Scientific Matrix PlateMate and a 10 μl aliquot of this dilution was dosed to cells manually using a multi-channel pipette. In method (2) starting with a 10 mM compound stock solution, the Labcyte Echo 550 was used to generate a compound concentration response set diluted in 30 μl of assay media. The Echo 550 is a liquid handler that uses acoustic technology to perform direct microplate-to-microplate transfers of DMSO compound solutions. The system can be programmed to transfer volumes as low as […] in multiple increments between microplates and in so doing generates a serial dilution of compound which is then back-filled to normalise the DMSO is concentration across the dilution range. A 10 μl volume of diluted compound is then dosed to cells using a Thermo Scientific Matrix PlateMate.
Plates were incubated overnight at 37° C., 5% CO2. Wells were then dosed with compound prepared by one of the 2 methods above and further incubated for 20-22 hours at 37° C., 5% CO2. Plates were fixed by the addition of 20 μl of 10% (v/v) formaldehyde solution (in PBS) to each well (final formaldehyde conc.=1.67% (v/v)) and left at room temperature for 10 mins. This fixative solution was removed and cells were washed with 250 μl of PBS/0.05% (v/v) Tween 20 (PBST) using an automated plate washer. This process was then repeated twice more.
Immunostaining was performed at room temperature. Cells were permeabilised by the addition of 35 μl of PBS containing 0.5% Tween 20 and incubated for 1 hour at room temperature. Permeabilisation solution was removed and cells were washed with 250 μl of PBST using an automated plate washer. This process was then repeated twice more. […]
One may read the IC50 as the concentration that gives 50% inhibition. Lower therefore signals greater potency in that assay. `CO[C@@H](C)C(=O)N1CCN(CCOc2ccc(C3CCN(c4ccc5nnc(C(F)(F)F)n5n4)CC3)cc2)CC1` [Example 25, 6-{4-[4-(2-{4-[(2S)-2-methoxypropanoyl]piperazin-1-yl}ethoxy)phenyl]piperidin-1-yl}-3-(trifluoromethyl)[1,2,4]triazolo[4,3-b]pyridazine] showed an IC50 of 1200 nM.
To `CC(=O)N1CCN(C[C@@H](C)Oc2ccc(C3CCN(c4ccc5nnc(C(F)(F)F)n5n4)CC3)cc2)CC1` [Example 26, 6-(4-{4-[(1R)-2-(4-acetylpiperazin-1-yl)-1-methylethoxy]phenyl}piperidin-1-yl)-3-(trifluoromethyl)[1,2,4]triazolo[4,3-b]pyridazine] belongs 160 nM; to `CC(=O)N1CCN(C[C@H](C)Oc2ccc(C3CCN(c4ccc5nnc(C(F)(F)F)n5n4)CC3)cc2)CC1` [Example 27, 6-(4-{4-[(1S)-2-(4-acetylpiperazin-1-yl)-1-methylethoxy]phenyl}piperidin-1-yl)-3-(trifluoromethyl) [1,2,4]triazolo[4,3-b]pyridazine], 880 nM; to `COC[C@H](CN1CCN(C(C)=O)CC1)Oc1ccc(C2CCN(c3ccc4nnc(C(F)(F)F)n4n3)CC2)cc1` [Example 28, 6-(4-{4-[(1S)-2-(4-acetylpiperazin-1-yl)-1-(methoxymethyl)ethoxy]phenyl}piperidin-1-yl)-3-(trifluoromethyl)[1,2,4]triazolo[4,3-b]pyridazine], 400 nM.
To `COC[C@@H](CN1CCN(C(C)=O)CC1)Oc1ccc(C2CCN(c3ccc4nnc(C(F)(F)F)n4n3)CC2)cc1` [Example 29, 6-(4-{4-[(1R)-2-(4-acetylpiperazin-1-yl)-1-(methoxymethyl)ethoxy]phenyl}piperidin-1-yl)-3-(trifluoromethyl)[1,2,4]triazolo[4,3-b]pyridazine] belongs 490 nM; to `CC(=O)N1CCN(CCOc2ccc(C3(O)CCN(c4ccc5nnc(C(F)(F)F)n5n4)CC3)c(C)c2)CC1` [Example 30, 4-{4-[2-(4-acetylpiperazin-1-yl)ethoxy]-2-methylphenyl}-1-[3-(trifluoromethyl)[1,2,4]-triazolo[4,3-b]pyridazin-6-yl]piperidin-4-ol], 210 nM; to `Cc1cc(OCCN2CCN(C)C(=O)C2)ccc1C1(O)CCN(c2ccc3nnc(C(F)(F)F)n3n2)CC1` [Example 31, 4-[2-(4-{4-hydroxy-1-[3-(trifluoromethyl)[1,2,4]-triazolo[4,3-b]pyridazin-6-yl]piperidin-4-yl}-3-methylphenoxy)ethyl]-1-methylpiperazin-2-one], 260 nM.
For `CN1CCN(CCOc2ccc(C3CCN(c4ccc5nnc(C(F)(F)F)n5n4)CC3)cc2)CCC1=O` [Example 32, 4-methyl-1-[2-(4-{1-[3-(trifluoromethyl)[1,2,4]-triazolo[4,3-b]pyridazin-6-yl]piperidin-4-yl}phenoxy)ethyl]-1,4-diazepan-5-one], the IC50 was found to be 56 nM.
To `CC(=O)N1CCN(CCOc2ccc(C3CCN(c4ccc5nnc(C(F)(F)F)n5n4)CC3)cc2)C[C@@H]1C` [Example 33, 6-[4-(4-{2-[(3S)-4-acetyl-3-methylpiperazin-1-yl]ethoxy}phenyl)piperidin-1-yl]-3-(trifluoromethyl)[1,2,4]triazolo[4,3-b]pyridazine] belongs 79 nM; to `CC(=O)N1CCN(CCOc2ccc(C3CCN(c4ccc5nnc(C(F)(F)F)n5n4)CC3)cc2)C[C@H]1C` [Example 34, 6-[4-(4-{2-[(3R)-4-acetyl-3-methylpiperazin-1-yl]ethoxy}phenyl)piperidin-1-yl]-3-(trifluoromethyl)[1,2,4]triazolo[4,3-b]pyridazine], 67 nM.
In turn, `CC(=O)N1CCN(CCOc2ccc(C3(O)CCN(c4ccc5nnc(C(F)(F)F)n5n4)CC3)c(F)c2)CC1` [Example 35, 4-{4-[2-(4-acetylpiperazin-1-yl)ethoxy]-2-fluorophenyl}-1-[3-(trifluoromethyl)[1,2,4]-triazolo[4,3-b]pyridazin-6-yl]piperidin-4-ol] showed an IC50 of 140 nM.
`CN1CCN(CCOc2ccc(C3(O)CCN(c4ccc5nnc(C(F)(F)F)n5n4)CC3)c(F)c2)CC1=O` [Example 36, 4-[2-(3-fluoro-4-[4-hydroxy-1-[3-(trifluoromethyl)[1,2,4]triazolo[4,3-b]pyridazin-6-yl]piperidin-4-yl]phenoxy)ethyl]-1-methylpiperazin-2-one] came in with an IC50 of 73 nM.
With `CCN1CCN(CCOc2ccc(C3(O)CCN(c4ccc5nnc(C(F)(F)F)n5n4)CC3)cc2)CC1=O` [Example 37, 1-ethyl-4-[2-(4-{4-hydroxy-1-[3-(trifluoromethyl)[1,2,4]triazolo[4,3-b]pyridazin-6-yl]piperidin-4-yl}phenoxy)ethyl]piperazin-2-one] the figure was 390 nM; with `O=C1CN(CCOc2ccc(C3(O)CCN(c4ccc5nnc(C(F)(F)F)n5n4)CC3)cc2)CCN1C1CC1` [Example 38, 1-cyclopropyl-4-[2-(4-{4-hydroxy-1-[3-(trifluoromethyl)[1,2,4]triazolo[4,3-b]pyridazin-6-yl]piperidin-4-yl}phenoxy)ethyl]piperazin-2-one], 490 nM.
To `CC(=O)N1CCN(CCOc2ccc(C3(O)CCN(c4ccc5nnc(C(F)(F)F)n5n4)CC3)cc2)C[C@H]1C` [Example 39, 4-(4-{2-[(3R)-4-acetyl-3-methylpiperazin-1-yl]ethoxy}phenyl)-1-[3-(trifluoromethyl) [1,2,4]triazolo[4,3-b]pyridazin-6-yl]piperidin-4-ol] belongs 71 nM; to `CC(=O)N1CCN(CCOc2ccc(C3(O)CCN(c4ccc5nnc(C(F)(F)F)n5n4)CC3)cc2)C[C@@H]1C` [Example 40, 4-(4-{2-[(3S)-4-acetyl-3-methylpiperazin-1-yl]ethoxy}phenyl)-1-[3-(trifluoromethyl) [1,2,4]triazolo[4,3-b]pyridazin-6-yl]piperidin-4-ol], 63 nM.
